According to ChEMBL document CHEMBL5291721, “A preclinical secondary pharmacology resource illuminates target-adverse drug reaction associations of marketed drugs” (Nat Commun, 2023):

Experiments:
[1] = biological target: T1, Type-2 angiotensin II receptor (Homo sapiens, UniProt P50052); type: functional
T1 sequence (P50052 whole entry): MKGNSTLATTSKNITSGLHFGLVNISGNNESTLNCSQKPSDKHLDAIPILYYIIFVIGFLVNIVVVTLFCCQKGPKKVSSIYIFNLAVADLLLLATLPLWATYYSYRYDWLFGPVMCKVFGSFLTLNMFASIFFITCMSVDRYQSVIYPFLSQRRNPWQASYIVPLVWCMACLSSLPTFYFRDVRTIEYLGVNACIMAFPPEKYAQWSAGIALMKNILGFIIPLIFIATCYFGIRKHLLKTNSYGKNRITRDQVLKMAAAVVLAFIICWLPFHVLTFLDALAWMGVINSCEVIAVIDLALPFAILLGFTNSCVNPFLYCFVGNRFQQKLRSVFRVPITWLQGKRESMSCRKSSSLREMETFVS

Glucagon receptor = Glucagon receptor (Homo sapiens, UniProt P47871)
Sequence of Glucagon receptor (P47871 whole entry): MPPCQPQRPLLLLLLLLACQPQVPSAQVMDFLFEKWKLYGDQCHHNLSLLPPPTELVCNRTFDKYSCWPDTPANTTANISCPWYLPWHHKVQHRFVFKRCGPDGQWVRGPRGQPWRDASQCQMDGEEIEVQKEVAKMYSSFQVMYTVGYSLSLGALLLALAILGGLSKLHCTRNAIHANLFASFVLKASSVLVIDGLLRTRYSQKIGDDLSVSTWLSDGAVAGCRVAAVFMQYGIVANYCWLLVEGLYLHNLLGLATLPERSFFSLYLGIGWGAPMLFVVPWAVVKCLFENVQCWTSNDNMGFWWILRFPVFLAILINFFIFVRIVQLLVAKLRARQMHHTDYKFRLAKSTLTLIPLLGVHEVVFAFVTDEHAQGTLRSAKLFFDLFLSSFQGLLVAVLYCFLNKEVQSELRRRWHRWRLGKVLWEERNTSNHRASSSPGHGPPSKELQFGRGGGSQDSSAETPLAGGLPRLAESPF

[2] = biological target: T2, Neuropeptide Y receptor type 2 (Homo sapiens, UniProt P49146)
T2 sequence (P49146 whole entry): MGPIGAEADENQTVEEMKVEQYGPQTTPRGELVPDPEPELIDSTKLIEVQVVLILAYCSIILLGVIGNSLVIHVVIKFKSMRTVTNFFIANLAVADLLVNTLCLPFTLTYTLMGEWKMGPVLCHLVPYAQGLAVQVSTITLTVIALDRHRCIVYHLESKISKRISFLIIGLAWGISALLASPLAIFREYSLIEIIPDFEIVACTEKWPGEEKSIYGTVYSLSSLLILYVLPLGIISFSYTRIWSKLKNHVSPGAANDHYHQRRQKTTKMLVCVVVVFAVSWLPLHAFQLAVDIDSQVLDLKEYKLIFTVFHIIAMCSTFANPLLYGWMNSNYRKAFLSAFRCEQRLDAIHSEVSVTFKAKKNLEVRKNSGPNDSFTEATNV

Estrogen receptor beta = Estrogen receptor beta (Homo sapiens, UniProt Q92731)
Sequence of Estrogen receptor beta (Q92731 whole entry): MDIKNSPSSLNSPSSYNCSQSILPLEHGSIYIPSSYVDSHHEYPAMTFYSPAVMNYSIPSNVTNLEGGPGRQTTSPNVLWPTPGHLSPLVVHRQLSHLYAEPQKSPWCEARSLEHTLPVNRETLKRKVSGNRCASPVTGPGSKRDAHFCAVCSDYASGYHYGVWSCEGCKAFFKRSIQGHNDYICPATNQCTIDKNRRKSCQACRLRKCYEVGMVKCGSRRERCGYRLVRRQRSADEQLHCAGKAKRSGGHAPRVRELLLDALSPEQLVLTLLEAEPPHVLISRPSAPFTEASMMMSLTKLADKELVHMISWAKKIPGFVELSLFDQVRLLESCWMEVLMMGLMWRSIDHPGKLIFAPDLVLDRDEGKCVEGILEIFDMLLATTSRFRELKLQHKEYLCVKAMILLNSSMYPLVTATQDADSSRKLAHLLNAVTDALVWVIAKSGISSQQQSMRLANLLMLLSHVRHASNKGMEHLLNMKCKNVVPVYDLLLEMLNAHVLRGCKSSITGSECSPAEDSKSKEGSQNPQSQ

[3] = biological target: T3, Gastric inhibitory polypeptide receptor (Homo sapiens, UniProt P48546)
T3 sequence (P48546 whole entry): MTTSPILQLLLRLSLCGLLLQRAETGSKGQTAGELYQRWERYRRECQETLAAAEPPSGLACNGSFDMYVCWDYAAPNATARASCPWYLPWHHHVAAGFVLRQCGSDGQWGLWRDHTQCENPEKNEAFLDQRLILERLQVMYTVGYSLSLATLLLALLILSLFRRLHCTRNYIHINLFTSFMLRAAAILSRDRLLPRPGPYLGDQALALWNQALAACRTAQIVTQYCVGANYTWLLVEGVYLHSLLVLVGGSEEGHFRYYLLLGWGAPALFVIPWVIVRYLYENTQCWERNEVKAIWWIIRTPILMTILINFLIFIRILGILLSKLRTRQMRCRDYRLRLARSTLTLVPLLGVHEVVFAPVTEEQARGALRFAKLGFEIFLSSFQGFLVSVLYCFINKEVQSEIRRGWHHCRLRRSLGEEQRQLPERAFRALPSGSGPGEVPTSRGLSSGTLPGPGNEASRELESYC

[4] = biological target: 5-hydroxytryptamine receptor 2A (Homo sapiens, UniProt P28223)
Sequence of 5-hydroxytryptamine receptor 2A (P28223 whole entry): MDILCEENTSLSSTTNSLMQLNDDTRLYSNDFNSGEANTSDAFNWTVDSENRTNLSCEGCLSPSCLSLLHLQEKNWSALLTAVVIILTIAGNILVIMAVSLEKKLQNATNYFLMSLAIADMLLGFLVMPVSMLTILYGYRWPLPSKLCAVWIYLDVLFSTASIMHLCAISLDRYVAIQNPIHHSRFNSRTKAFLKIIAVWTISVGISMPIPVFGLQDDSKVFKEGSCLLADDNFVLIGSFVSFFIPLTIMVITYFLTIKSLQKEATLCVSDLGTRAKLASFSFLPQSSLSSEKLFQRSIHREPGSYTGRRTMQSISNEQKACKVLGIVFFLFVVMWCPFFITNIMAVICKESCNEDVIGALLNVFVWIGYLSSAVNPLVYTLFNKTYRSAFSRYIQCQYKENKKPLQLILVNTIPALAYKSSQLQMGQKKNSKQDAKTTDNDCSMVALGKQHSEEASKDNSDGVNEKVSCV

[5] = biological target: Sodium channel protein type 5 subunit alpha (Homo sapiens, UniProt Q14524); type: functional, cell-based
Sequence of Sodium channel protein type 5 subunit alpha (Q14524 whole entry): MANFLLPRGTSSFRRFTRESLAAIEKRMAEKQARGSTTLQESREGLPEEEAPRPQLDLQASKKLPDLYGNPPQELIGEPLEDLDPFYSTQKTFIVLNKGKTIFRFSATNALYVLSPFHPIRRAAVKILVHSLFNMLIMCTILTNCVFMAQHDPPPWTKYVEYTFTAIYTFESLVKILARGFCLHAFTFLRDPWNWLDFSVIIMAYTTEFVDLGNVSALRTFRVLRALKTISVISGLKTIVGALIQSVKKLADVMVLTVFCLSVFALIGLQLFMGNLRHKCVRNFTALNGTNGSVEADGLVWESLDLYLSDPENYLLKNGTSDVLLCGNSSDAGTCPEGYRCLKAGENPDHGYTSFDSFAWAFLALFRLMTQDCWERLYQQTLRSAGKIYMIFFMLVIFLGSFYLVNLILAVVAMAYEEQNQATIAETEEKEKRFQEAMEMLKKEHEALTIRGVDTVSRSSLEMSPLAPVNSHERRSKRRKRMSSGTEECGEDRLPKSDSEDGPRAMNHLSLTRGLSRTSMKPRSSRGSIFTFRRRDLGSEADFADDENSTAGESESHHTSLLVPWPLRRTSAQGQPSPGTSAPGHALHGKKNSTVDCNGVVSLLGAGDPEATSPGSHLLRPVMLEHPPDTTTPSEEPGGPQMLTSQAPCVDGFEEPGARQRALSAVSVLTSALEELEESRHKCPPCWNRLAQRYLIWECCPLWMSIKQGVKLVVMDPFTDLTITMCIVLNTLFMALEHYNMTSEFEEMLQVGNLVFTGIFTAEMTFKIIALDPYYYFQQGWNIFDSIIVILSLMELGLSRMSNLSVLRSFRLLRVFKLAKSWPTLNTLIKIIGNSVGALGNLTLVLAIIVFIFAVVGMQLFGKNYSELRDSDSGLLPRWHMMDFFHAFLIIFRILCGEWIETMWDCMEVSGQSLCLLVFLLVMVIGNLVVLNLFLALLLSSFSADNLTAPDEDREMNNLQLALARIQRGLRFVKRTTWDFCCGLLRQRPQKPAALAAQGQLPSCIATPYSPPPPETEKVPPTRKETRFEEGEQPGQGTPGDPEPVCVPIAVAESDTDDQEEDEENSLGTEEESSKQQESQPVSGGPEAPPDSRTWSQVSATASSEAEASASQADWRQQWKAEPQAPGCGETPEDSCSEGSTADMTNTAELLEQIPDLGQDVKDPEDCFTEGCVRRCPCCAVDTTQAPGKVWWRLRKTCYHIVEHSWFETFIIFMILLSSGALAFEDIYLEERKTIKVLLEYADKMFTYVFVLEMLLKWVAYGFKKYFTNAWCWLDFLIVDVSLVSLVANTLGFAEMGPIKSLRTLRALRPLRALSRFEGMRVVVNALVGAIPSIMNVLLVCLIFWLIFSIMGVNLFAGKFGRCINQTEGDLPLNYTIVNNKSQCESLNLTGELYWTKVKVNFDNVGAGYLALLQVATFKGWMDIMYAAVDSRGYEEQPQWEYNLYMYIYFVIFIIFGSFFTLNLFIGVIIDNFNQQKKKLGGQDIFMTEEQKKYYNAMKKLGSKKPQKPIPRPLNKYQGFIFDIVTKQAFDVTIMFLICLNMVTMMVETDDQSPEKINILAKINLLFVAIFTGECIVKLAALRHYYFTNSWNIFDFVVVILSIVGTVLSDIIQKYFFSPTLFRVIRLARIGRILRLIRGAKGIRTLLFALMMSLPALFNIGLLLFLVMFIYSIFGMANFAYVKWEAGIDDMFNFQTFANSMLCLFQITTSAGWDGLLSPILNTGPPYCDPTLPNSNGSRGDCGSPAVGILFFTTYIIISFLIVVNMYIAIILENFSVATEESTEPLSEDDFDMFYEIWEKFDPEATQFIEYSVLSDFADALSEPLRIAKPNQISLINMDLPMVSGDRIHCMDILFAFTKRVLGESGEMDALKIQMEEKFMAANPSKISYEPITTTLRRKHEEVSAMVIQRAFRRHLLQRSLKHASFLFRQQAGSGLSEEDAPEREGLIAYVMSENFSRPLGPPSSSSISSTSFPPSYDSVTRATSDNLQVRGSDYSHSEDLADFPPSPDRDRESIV

Glucocorticoid receptor = biological target: T4, Glucocorticoid receptor (Homo sapiens, UniProt P04150); type: functional
T4 sequence (P04150 whole entry): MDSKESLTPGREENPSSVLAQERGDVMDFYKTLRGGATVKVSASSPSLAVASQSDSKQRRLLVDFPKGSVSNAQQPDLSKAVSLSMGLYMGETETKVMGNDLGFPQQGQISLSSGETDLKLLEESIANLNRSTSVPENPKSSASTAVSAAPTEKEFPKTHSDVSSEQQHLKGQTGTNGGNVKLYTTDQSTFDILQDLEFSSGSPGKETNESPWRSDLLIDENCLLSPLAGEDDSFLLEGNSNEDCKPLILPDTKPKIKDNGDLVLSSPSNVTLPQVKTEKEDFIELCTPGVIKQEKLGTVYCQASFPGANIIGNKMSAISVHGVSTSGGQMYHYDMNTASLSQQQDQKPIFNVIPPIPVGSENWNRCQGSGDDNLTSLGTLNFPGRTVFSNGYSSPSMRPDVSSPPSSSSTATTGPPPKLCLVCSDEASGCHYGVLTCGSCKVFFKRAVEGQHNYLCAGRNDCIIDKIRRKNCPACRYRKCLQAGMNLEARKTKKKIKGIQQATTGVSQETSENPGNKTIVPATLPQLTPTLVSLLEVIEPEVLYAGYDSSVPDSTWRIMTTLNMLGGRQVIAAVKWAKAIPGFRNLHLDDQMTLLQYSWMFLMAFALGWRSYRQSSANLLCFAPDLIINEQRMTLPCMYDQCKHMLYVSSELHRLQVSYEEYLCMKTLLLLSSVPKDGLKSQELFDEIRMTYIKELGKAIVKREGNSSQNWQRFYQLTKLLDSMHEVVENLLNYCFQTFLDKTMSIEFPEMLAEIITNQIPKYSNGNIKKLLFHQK

[6] = biological target: T5, Muscarinic acetylcholine receptor M5 (Homo sapiens, UniProt P08912)
T5 sequence (P08912 whole entry): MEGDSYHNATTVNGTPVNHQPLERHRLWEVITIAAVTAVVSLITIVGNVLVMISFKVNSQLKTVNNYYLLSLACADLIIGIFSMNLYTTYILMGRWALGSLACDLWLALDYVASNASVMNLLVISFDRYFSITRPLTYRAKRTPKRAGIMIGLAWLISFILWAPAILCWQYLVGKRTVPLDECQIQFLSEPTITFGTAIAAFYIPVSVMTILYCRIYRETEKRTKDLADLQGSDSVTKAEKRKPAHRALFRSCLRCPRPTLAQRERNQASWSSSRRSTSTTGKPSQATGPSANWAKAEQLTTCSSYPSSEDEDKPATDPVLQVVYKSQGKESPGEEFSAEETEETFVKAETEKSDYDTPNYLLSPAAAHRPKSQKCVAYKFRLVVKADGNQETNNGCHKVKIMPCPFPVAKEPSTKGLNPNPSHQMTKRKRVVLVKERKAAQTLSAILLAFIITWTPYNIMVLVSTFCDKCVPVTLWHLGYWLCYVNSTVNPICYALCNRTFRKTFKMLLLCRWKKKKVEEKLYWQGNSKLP

[7] = biological target: 5-hydroxytryptamine receptor 7 (Homo sapiens, UniProt P34969)
Sequence of 5-hydroxytryptamine receptor 7 (P34969 whole entry): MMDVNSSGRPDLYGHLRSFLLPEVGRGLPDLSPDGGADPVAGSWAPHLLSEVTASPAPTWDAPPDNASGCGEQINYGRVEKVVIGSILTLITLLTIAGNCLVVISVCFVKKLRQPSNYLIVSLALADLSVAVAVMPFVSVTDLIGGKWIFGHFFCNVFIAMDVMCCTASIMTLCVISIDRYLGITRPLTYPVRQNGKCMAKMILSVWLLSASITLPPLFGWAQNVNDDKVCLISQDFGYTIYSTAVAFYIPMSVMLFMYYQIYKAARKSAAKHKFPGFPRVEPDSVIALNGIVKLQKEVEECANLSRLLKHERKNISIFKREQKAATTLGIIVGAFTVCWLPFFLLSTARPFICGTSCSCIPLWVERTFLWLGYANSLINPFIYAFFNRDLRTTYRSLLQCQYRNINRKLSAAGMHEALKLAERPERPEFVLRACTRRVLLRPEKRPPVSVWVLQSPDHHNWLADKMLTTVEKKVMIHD

[8] = biological target: Gamma-aminobutyric acid type B receptor subunit 1 (Homo sapiens, UniProt Q9UBS5)
[9] = biological target: Beta-1 adrenergic receptor (Homo sapiens, UniProt P08588); type: functional, cell-based
Sequence of Beta-1 adrenergic receptor (P08588 whole entry): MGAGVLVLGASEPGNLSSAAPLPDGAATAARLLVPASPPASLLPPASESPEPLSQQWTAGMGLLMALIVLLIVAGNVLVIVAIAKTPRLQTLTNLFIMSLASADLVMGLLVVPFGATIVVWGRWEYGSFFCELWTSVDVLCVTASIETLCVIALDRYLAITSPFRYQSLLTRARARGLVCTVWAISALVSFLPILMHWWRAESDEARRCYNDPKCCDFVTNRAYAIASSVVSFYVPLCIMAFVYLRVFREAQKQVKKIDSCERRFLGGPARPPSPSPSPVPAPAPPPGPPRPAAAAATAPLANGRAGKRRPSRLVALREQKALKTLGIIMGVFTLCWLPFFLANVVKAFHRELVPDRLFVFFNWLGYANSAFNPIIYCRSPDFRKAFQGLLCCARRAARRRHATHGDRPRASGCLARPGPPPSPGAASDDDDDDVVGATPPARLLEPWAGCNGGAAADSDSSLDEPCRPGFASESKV
Also: assay procedure not described here.

Molecule `CC(C)Cc1ccc(C(C)C(=O)OCc2ccccn2)cc1` (centres undefined) [IBUPROFEN PICONOL] has an AC50 [1] of over 100 µM.
Molecule `C[C@]12C=CC(=O)C=C1CC[C@@H]1[C@@H]2[C@@H](O)C[C@@]2(C)[C@H]1CC[C@]2(O)C(=O)CO` [PREDNISOLONE] has an AC50 (Glucagon receptor) of over 30 µM, an AC50 [2] of over 30 µM and an AC50 (Estrogen receptor beta) of over 30 µM. It also gave an AC50 [3] of over 30 µM.
Molecule `CCC(=O)c1ccc2c(c1)N(CC(C)N(C)C)c1ccccc1S2` (centres undefined) [PROPIOMAZINE] has an AC50 [4] of 0.0233 µM.
`COc1cccc2c1C(=O)c1c(O)c3c(c(O)c1C2=O)C[C@@](O)(C(=O)CO)C[C@@H]3O[C@H]1C[C@H](N)[C@H](O)[C@H](C)O1` [DOXORUBICIN] gave an AC50 [5] of over 50 µM and an AC50 (Glucocorticoid receptor) of 11 µM.
For `CC1(C)O[C@@H]2C[C@H]3[C@@H]4CCC5=CC(=O)C=C[C@]5(C)[C@@]4(F)[C@@H](O)C[C@]3(C)[C@]2(C(=O)CO)O1` [TRIAMCINOLONE ACETONIDE], the AC50 (Glucocorticoid receptor) was 0.0039 µM.
`C[C@@H]1CN(c2c(F)c(N)c3c(=O)c(C(=O)O)cn(C4CC4)c3c2F)C[C@H](C)N1` [SPARFLOXACIN] gave an AC50 [5] of over 50 µM.
In the case of `Cc1ccc(O)c([C@H](CCN(C(C)C)C(C)C)c2ccccc2)c1` [TOLTERODINE], the AC50 [4] was 8.84 µM, the AC50 [6] was 0.0065 µM and the AC50 [7] was over 10 µM. The AC50 [8] was over 10 µM.
`N=C(N)NC(=O)c1nc(Cl)c(N)nc1N` [AMILORIDE] showed an AC50 (Glucagon receptor) of over 30 µM, an AC50 [1] of over 100 µM and an AC50 [2] of over 30 µM. It also gave an AC50 (Estrogen receptor beta) of over 30 µM, an AC50 [6] of over 10 µM and an AC50 [7] of over 10 µM. It also gave an AC50 [3] of over 30 µM and an AC50 [8] of over 10 µM.
For `C[C@]12CCC(=O)C=C1C=C[C@@H]1[C@@H]2CC[C@@]2(C)[C@H]1CC[C@@]21CCC(=O)O1` [CANRENONE], the AC50 [9] was over 30 µM.
`CC(C)(Oc1ccc(Cl)cc1)C(=O)OCCOC(=O)c1cccnc1` [ETOFIBRATE] gave an AC50 [9] of over 30 µM.
